Data taken from US5703072A, “Bicyclic nonane and decane compounds having dopamine receptor affinity” (Allelix Biopharmaceuticals, priority 1996, dated 1997).

Key:
[1] = molecular target: T1, human D4 receptor (D4.2 sub-type) (Homo sapiens, UniProt P21917, DEL265-296); experiment: D4 receptor binding: displacement of 3H-spiperone; settings: D4 affinity; 3H-spiperone displacement
T1 construct: expressed in transfected cells; host or cells: HEK 298 (human embryonic kidney) cells (so in the source); homogenate of stably transfected cells
T1 sequence (P21917 with tags, fused parts or gaps DEL265-296): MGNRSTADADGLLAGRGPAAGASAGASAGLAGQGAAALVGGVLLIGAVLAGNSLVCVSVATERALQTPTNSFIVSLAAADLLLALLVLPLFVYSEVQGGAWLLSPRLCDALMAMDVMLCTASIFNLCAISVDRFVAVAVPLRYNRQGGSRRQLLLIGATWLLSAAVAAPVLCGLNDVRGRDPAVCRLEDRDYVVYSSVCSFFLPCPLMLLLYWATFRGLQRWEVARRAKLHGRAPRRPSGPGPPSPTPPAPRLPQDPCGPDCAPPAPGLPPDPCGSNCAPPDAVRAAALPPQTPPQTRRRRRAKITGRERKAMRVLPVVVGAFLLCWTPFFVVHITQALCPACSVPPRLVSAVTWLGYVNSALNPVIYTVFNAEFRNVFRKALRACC
Protocol: (§1) The potency of the test compound to reduce ^3 H-spiperone binding directly correlated to its binding affinity for the receptor.
The cells were then centrifuged in a Sorval centrifuge for 10 min, 5000 rpm (GS3 rotor) and the pellets quickly frozen in liquid nitrogen and stored at -80° C. until used in binding assay. When used in the assay, cells were thawed on ice for 20 min and then 1 mL of incubation buffer (50 mM Tris, 1 mM EDTA, 4 mM MgCl2, 5 mM KCl, 1.5 mM CaCl2, 120 mM NaCl, pH7.4) was added. […] Concentration of receptor protein was determined using the Pierce BCA assay.
(§2) The tubes were vortexed and incubated at room temperature for 90 minutes. The binding reaction was stopped by filtering using a Brandell Cell Harvester. The samples were filtered under vacuum over glass fibre filters (Whatman GF/B) presoaked for 2 hours in 0.3% polyethylenimine (PEI) in 50 mM Tris buffer (pH 7.4). The filters were then washed 3 times with 5 ml ice cold 50 mM Tris buffer (pH 7.4). Individual filter disks were put in scintillation vials (Biovials, Bechman). Ready Protein Plus liquid scintillant (5 ml, Beckman) was added and the vials counted by liquid scintillation spectrophotometry (Beckman LSC 6500) after equilibrating for three hours at room temperature to determine total binding (BT).
The tubes were vortexed and incubated at room temperature for 90 minutes at which time the binding reaction was stopped by filtering. The filters were washed and counted using the same procedure as in the total binding assay described above to give the non-specific binding value (NSB).
(§3) The incubation was started by the addition to 12×75 mm polypropylene tubes 500 μl (50 μg protein) membrane homogenate to a solution of 400 μl incubation buffer, 100 μl ([…].) ^3 H-spiperone (90 Ci/mmol, Amersham, diluted in borosilicate glass vial to) and 500 μl of test compound that was prepared from 1 mM stock dissolved in DMSO and stored at -20° C. in polypropylene cryogenic storage vials until dilution in incubation buffer in borosilicate glass vials. The tubes were vortexed and incubated at room temperature for 90 minutes at which time the binding reaction was stopped by filtering. The filters were washed and counted using the same procedure as in the total binding assay described above to give the displacement binding value (BD).
(§4) IC50 was determined from an inhibition response curve, logit-log plot of %B/B0 vs concentration of test compound.
(§5) Ki was calculated by the Cheng and Prustoff transformation: Ki=IC50 /(1+[L]/KD) where [L] is the concentration of ^3 H-spiperone used in the assay and KD is the dissociation constant of ^3 H-spiperone determined independently under the same binding conditions.

[2] = molecular target: T2, human D2 receptor (short isoform) (Homo sapiens, UniProt P14416); experiment: D2 receptor binding (displacement of 3H-spiperone) relative to D4: D2/D4 selectivity; settings: D2/D4 ratio
T2 construct: 3H-spiperone displacement
Protocol: as §1
GH4 C1 (rat pituitary) cells stably transfected with the human D2 receptor (short isoform) were grown in CO2 independent media in roller bottles (1500 cm^2) for 10 days. 100 μM ZnSO4 was added to the cells (the D2 promoter being zinc inducible). After 16 hours, fresh media was added to allow the cells to recover for 24 hours. The cells were harvested using versine and then centrifuged in a Sorval centrifuge for 10 minutes, at 5000 rpm (GS3 rotor). Pellets were quickly frozen in liquid nitrogen and stored at -80° C. until used in the binding assays. When used in the assay, cells were thawed on ice for 20 minutes. […] The receptor protein concentration was determined using the Pierce BCA assay.
as §2
This assay employed the same procedures as the non-specific binding assay for D4 with the exception that 2 μM (final conc.) of (-) sulpiride (Research Chemicals Inc.) was used in place of dopamine.
as §3, §4, §5

human D4 receptors = molecular target: T3, human D4 receptors (Homo sapiens, UniProt P21917); experiment: Antagonist assay: reversal of dopamine inhibition of forskolin-stimulated adenyl cyclase (cAMP) in CHO Pro 5 cells; type: cell-based; settings: dopamine and forskolin both 10 μM; for inhibition at 1 µM: test compound 1 μM, read-out: % REVERSAL OF DOPAMINE EFFECT, 1 μM; for inhibition at 10 µM: test compound 10 μM, read-out: % REVERSAL OF DOPAMINE EFFECT, 10 μM
T3 construct: expressed in transfected cells; host or cells: CHO Pro 5 cells, stably expressing
T3 sequence (P21917 1-419): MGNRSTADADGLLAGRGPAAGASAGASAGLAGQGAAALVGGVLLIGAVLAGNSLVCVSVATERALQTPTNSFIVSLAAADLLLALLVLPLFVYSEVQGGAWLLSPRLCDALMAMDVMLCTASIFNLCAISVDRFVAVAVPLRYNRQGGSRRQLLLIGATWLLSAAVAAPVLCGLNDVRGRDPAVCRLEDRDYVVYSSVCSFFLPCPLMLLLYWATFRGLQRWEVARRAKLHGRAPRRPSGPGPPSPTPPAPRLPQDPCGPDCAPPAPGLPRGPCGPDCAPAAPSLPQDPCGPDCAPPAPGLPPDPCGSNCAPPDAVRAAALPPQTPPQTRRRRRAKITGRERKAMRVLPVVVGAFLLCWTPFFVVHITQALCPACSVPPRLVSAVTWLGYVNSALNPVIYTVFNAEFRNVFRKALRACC
Protocol: The D4 receptor responds to dopamine and other agonists by reducing adenyl cyclase mediated production of cyclic AMP. Particular test compounds were assayed for their ability to reverse dopamine inhibition of adenyl cyclase by the following procedure. Forskolin was used to elevate the basal adenyl cyclase activity.
CHO Pro 5 cells stably expressing human D4 receptors were plated in 6 well plates in DMEM (Dulbecco's Modified Eagle Medium)/F12(Nutrient Mixture F12 (Ham)) media with 10% FCS (fetal calf serum) and G418 (Geneticen Disulfate), and incubated at 37° C. in a CO2 incubator. The cells were allowed to grow to about 70% confluence before use in the assay.
The culture media of each well was removed by aspiration, and the wells were washed once with serum free media (SFM) (DMEM/F12) media. Then 2 mL of fresh SFM+IBMX media (SFM with 0.5 mM IBMX (3-isobutyl-1-methylxanthine0.1% ascorbic acid and 10 μM pargyline) was added to each well and then incubated at 37° C. for 10 minutes in CO2 incubator. Following incubation, SFM+IBMX media was aspirated and fresh SFM+IBMX media was added to wells separately with one of a) forskolin (10 μM final conc.); b) dopamine and forskolin (both 10 μM final conc.); […]), and dopamine and forskolin (both 10 μM final conc.). Basal adenyl cyclase activity was determined from wells with only SFM+IBMX media added.
The cells were then incubated at 37° C. for 30 minutes in a CO2 incubator. Following incubation the media was aspirated from each well and then washed once with 2 mL of PBS (phosphate buffered saline). […] The cells from each well were then scraped and transferred into individual Eppendorf tubes. The tubes were centrifuged for 5 min at 4° C., and the supernatants were transferred to new Eppendorf tubes. The pellets were discarded and the supernatants dried using a SpeedVac. The extracts were then reconstituted in 600 μL of 0.1M sodium acetate buffer, pH 6.1, and stored at 4° C. until assayed for cAMP concentration. cAMP content measured in fmoles/well for each extract was determined by EIA (enzyme-immunoassay) using Amersham Biotrak cAMP EIA kit (Amersham RPN 225).
Total inhibition (I0) of forskolin-stimulated adenyl cyclase activity by dopamine was determined as the difference in concentration of cAMP in the forskolin-treated cells (Cf) and dopamine-forskolin treated cells (Cd).
Net inhibition (I) of forskolin-stimulated adenyl cyclase activity by dopamine in the presence of an antagonist was determined as the difference in concentration of cAMP in the forskolin-treated cells (Cf) and test compound, dopamine and forskolin treated cells (C).

[3] = system: D4 receptor relative to the D2 receptor; settings: currently marketed products; cited from earlier work
D4 receptor = settings: D4 affinity of currently marketed products; cited from earlier work

T2 sequence (P14416 with tags, fused parts or gaps DEL242-270): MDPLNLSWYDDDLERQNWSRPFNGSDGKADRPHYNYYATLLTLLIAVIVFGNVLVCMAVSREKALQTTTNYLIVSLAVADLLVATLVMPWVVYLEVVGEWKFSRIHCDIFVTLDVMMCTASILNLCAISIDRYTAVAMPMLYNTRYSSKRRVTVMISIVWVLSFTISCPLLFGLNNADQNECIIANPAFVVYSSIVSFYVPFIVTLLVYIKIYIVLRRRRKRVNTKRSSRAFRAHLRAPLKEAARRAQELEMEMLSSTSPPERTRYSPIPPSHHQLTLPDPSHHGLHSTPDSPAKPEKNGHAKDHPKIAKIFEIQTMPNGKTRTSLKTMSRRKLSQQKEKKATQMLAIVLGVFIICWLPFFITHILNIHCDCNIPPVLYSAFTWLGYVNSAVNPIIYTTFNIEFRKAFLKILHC

Ki [1] [µM] | D2/D4 [2] | inhibition at 1 µM (human D4 receptors) [%] | inhibition at 10 µM (human D4 receptors) [%] | SMILES | preference for binding the D4 receptor relative to the D2 receptor [3] | Ki (D4 receptor) [µM]
0.0157 | 6.8 |  |  | Clc1ccc2c(c1)N=C(N1CCN3CCCCC3C1)c1ccccc1O2 (racemic) [8-chloro-11-[(R,S)-1,4-diazabicyclo[4.4.0]decan-4-yl]-dibenzo[b,f]-1,4-oxazepine] |  | 
0.024 | 25.6 |  |  | Clc1ccc2c(c1)N=C(N1CCN3C[C@@H](OCc4ccccc4)C[C@H]3C1)c1ccccc1O2 [8-chloro-11-[(6S,8S)-8-benzyloxy-1,4-diazabicyclo[4.3.0]non-4-yl]-dibenzo[b,f]-1,4-oxazepine] |  | 
0.028 | 18.2 |  |  | O[C@H]1C[C@H]2CN(C3=Nc4cc(Cl)ccc4Oc4ccccc43)CCN2C1 [8-chloro-11-[(6S,8S)-8-hydroxy-1,4-diazabicyclo[4.3.0]non-4-yl]-dibenzo[b,f]-1,4-oxazepine] |  | 
0.018 | 32.2 |  |  | Clc1ccc2c(c1)N=C(N1CCN3CCC[C@@H]3C1)c1ccccc1O2 [8-chloro-11-[(R)-1,4-diazabicyclo[4.3.0]non-4-yl]-dibenzo[b,f]-1,4-oxazepine] |  | 
0.402 | 4.1 |  |  | Clc1ccc2c(c1)N=C(N1CCN3CCCC[C@@H]3C1)c1ccccc1O2 [8-chloro-11-[(R)-1,4-diazabicyclo[4.4.0]decan-4-yl]-dibenzo[b,f]-1,4-oxazepine] |  | 
0.0012 | 104.5 | 23 | 48 | Clc1ccc2c(c1)N=C(N1CCN3CCC[C@H]3C1)c1ccccc1O2 [8-chloro-11-[(S)-1,4-diazabicyclo[4.3.0]non-4-yl]-dibenzo[b,f]-1,4-oxazepine] |  | 
0.001 | 40 | 52 | 93 | Clc1ccc2c(c1)N=C(N1CCN3CCCC[C@H]3C1)c1ccccc1O2 [8-chloro-11-[(S)-1,4-diazabicyclo[4.4.0]decan-4-yl]-dibenzo[b,f]-1,4-oxazepine] |  | 
 |  |  |  | CN1CCN(C2=Nc3cc(Cl)ccc3Oc3ccccc32)CC1 [isoloxapine] | about 10 fold | ~0.02
